How the values were obtained:
[1] = test system: MALAT1; experiment: Real-time RT-PCR of MALAT1 RNA expression in BE(2)-C cells; assay type: cell-based, human; conditions: 67μM DMOG, 48 hours, vs vehicle control
Source text: Gene expression in tumor cells was examined by quantitative real-time RT-PCR as described previously. For the analysis of protein expression by immunoblot, cells were lysed, protein extracted and separated by gel electrophoresis. After western transfer, membranes were probed with mouse anti-N-Myc antibody (1:1000) (Santa Cruz Biotech, CA, USA) or rabbit anti-JMJD1A antibody (1:500) (Abcam, Cambridge, MA, USA), followed by horseradish peroxidase-conjugated anti-mouse (1:10000) or anti-rabbit (1:20000) antiserum (Santa Cruz Biotech). Protein bands were visualized with SuperSignal (Pierce, Rockford, IL, USA). The membranes were lastly re-probed with an anti-actin antibody (Sigma, St Louis, MO, USA) as loading controls.

[2] = test system: BE(2)-C cells; experiment: Cell proliferation, Alamar blue assay, BE(2)-C; assay type: cell-based, human; conditions: range of doses of DMOG, 72 hours
Procedure: Cell proliferation was examined with Alamar blue assays. Briefly, cells were plated into 96 well plates, transfected with various siRNAs or treated with different dosages of DMOG. Seventy-two hours later, cells were incubated with Alamar blue (Invitrogen) for 5 hours, and plates were then read on a micro-plate reader at 570/595 nm. Results were calculated according to the optical density absorbance units and expressed as percentage changes in cell numbers.

[3] = test system: BE(2)-C cells; experiment: Cell migration (wound healing) assay with Ibidi Culture Inserts; assay type: cell-based, human; conditions: 67μM DMOG vs vehicle control
Procedure: Ibidi Culture Inserts (DKSH, Sydney, Australia) were placed in the center of 6 well plates. BE(2)-C cells were added into the wells outside the inserts. Sixteen hours later, the inserts were removed to create “wounds”. Photos of the “wounds” were taken under microscope, and the areas of the remaining “wounds” were measured and analyzed with Image J software (National Institutes of Health, USA).

[4] = test system: BE(2)-C cells; experiment: Matrigel cell invasion assay; assay type: cell-based, human; conditions: 67μM DMOG for 20 hours, invasion quantified 22 hours later, vs vehicle control
Procedure: BE(2)-C cells were transfected with siRNA or treated with JMJD1A inhibitors for 20 hours, and then detached and added onto BD Falcon Cell Culture Inserts coated with Matrigel inside BD BioCoat Matrigel Invasion Chambers (Becton Dickinson, Bedford, MA, USA). Cells invaded through Matrigel to the bottom side of the inserts were stained with toluidine blue, photographed under microscope and quantified.

[5] = target: T1, JMJD2A (Homo sapiens, UniProt O75164); experiment: Histone demethylase inhibition assay, JMJD2A; assay type: biochemical; conditions: in vitro; compared with JMJD1A
T1 sequence (O75164 1-1064): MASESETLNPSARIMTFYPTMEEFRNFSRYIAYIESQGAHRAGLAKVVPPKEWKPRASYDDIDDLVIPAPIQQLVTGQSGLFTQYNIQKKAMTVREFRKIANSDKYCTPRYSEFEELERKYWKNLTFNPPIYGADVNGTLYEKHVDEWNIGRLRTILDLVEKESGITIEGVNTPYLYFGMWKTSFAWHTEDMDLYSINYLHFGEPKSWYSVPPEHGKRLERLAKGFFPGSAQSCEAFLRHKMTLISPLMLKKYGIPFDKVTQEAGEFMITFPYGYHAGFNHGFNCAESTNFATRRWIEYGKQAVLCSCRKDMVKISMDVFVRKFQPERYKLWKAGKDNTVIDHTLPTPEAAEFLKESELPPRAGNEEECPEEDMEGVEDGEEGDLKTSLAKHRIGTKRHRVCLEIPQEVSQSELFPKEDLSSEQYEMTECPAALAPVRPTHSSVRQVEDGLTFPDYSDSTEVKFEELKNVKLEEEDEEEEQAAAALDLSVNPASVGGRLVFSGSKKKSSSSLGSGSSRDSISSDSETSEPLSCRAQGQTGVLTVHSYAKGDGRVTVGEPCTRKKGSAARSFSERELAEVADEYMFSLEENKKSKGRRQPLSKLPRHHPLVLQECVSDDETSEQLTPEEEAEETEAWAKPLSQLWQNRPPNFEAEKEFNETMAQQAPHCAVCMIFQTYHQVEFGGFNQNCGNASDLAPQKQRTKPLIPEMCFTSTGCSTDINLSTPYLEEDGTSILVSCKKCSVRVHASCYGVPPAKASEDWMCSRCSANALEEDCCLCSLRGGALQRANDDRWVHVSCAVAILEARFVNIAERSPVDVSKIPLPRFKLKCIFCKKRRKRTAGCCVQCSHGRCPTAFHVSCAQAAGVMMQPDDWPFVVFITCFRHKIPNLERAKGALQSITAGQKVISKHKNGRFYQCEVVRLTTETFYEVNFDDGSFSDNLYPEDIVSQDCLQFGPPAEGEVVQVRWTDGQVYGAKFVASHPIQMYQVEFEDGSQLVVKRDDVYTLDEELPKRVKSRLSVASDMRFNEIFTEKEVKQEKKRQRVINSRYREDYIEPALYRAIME

[6] = target: T2, JMJD2C (Homo sapiens, UniProt Q9H3R0); experiment: Histone demethylase inhibition assay, JMJD2C; assay type: biochemical; conditions: in vitro; compared with JMJD1A
T2 sequence (Q9H3R0 1-1056): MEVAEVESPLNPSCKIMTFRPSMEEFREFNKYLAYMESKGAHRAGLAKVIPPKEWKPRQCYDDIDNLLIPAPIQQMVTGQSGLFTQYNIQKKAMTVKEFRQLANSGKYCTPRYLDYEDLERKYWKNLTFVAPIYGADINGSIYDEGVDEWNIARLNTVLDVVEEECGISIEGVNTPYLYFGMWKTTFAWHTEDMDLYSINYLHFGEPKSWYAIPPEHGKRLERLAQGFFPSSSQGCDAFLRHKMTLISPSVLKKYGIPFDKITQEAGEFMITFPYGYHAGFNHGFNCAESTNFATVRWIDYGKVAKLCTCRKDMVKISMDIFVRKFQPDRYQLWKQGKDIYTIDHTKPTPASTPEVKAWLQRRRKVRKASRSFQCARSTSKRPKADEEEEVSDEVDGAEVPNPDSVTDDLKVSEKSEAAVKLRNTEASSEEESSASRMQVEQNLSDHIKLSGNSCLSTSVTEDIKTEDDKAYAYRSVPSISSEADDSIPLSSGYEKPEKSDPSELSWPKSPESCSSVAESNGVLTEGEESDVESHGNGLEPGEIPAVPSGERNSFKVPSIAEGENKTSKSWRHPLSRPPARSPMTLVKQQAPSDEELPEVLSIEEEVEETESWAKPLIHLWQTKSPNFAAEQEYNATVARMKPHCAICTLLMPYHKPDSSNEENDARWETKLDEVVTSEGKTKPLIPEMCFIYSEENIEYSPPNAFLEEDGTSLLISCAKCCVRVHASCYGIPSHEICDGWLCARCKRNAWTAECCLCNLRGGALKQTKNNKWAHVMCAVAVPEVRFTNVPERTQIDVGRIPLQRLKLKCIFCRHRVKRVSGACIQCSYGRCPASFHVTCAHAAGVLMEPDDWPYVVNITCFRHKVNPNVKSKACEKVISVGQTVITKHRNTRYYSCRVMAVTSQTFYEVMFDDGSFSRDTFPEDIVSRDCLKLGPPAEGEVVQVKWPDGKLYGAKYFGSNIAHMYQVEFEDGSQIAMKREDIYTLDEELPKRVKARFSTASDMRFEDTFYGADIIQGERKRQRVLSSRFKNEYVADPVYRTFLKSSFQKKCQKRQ

[7] = target: JARID1A (Homo sapiens, UniProt P29375); experiment: Formaldehyde dehydrogenase-coupled assay, JARID1A; assay type: biochemical; conditions: in vitro; compared with JMJD1A
Sequence of JARID1A (P29375 whole entry): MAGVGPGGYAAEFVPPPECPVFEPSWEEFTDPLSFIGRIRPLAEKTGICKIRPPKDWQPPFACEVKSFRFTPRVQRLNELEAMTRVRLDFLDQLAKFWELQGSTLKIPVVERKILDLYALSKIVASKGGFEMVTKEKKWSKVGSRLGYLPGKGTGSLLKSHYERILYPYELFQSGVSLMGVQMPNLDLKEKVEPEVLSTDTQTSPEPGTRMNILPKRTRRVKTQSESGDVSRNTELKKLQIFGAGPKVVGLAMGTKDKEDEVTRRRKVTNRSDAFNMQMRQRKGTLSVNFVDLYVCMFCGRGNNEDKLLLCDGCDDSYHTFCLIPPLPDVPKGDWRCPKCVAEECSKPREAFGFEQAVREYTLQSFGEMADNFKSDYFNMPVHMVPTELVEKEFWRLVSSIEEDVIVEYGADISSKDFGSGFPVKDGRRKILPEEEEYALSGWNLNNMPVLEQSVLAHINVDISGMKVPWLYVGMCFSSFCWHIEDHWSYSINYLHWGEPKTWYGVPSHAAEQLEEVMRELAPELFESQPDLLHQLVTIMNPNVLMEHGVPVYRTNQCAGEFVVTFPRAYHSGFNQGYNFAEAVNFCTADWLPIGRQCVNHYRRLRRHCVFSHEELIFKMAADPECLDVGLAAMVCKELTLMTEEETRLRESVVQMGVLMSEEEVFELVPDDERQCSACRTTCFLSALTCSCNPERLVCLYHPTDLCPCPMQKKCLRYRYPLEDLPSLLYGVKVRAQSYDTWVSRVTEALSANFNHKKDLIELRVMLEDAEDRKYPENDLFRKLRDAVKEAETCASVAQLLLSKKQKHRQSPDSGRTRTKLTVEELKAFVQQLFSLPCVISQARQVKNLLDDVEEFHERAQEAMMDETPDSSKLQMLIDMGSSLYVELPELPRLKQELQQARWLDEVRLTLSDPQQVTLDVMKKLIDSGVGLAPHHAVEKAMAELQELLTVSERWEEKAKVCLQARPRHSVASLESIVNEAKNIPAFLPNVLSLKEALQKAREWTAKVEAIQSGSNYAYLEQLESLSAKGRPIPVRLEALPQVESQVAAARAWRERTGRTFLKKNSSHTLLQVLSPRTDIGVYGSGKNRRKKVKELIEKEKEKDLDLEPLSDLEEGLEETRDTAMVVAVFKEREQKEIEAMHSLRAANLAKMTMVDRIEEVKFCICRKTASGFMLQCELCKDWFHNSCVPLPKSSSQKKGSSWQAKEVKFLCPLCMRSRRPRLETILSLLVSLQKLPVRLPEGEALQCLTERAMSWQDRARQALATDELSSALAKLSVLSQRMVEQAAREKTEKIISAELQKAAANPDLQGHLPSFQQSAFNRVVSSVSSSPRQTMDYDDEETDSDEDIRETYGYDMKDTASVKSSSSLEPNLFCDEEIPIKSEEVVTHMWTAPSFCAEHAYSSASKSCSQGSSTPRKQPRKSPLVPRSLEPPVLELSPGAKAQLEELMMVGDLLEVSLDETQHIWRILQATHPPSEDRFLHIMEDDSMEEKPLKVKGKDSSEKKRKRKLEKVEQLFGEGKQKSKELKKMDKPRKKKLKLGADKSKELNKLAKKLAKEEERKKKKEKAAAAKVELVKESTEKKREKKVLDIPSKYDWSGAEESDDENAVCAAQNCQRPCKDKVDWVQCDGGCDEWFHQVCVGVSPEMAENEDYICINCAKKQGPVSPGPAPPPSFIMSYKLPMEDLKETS

| Inhibition of other histone demethylases (JMJD2A), concentration in words [5] | Inhibition of other histone demethylases (JMJD2C), concentration in words [6] | Inhibition of other histone demethylases (JARID1A), concentration in words [7] | Compound | MALAT1 gene expression [1] | Cell proliferation (viable cells, Alamar blue) [2] | Increase in area of remaining wounds ([3]; 32 hours after removal of inserts) | Increase in area of remaining wounds ([3]; 48 hours after removal of inserts) [%] | Reduction of cell invasion through Matrigel [4] |
| --- | --- | --- | --- | --- | --- | --- | --- | --- |
| – | – | – | COC(=O)CNC(=O)C(=O)OC [DMOG] | reduced | no effect | approximately 47% | ~895 | approximately 52% |
| much higher concentrations | much higher concentrations | much higher concentrations | O=C(O)CNC(=O)C(=O)O [NOG, N-oxalylglycine] | – | – | – | – | – |

From publication PMC4039110, “The histone demethylase JMJD1A induces cell migration and invasion by up-regulating the expression of the long noncoding RNA MALAT1” (Oncotarget, 2014)
